{"source": "patent US20080268435A1", "about": "“Brca1 Markers” (THE QUEEN'S UNIVERSITY OF BELFAST, priority 2004, published 2008)", "format_in_all_cases": "cell-based", "key": {"[1]": {"system": "HP1 and MDA-MB-231-zeo cell lines", "test": "72 hour dose inhibition study of etoposide, psoriasin-expressing HP1 vs empty vector MDA-MB-231-zeo cells", "settings": "HP1 (exogenous psoriasin) vs MDA-MB231-zeo vector control; 72 h continuous exposure; from IC50 values; three independent experiments", "description": "(§1) Cells were either untreated (lanes 1 and 2) or treated with 1 μM etoposide for 24 hours. The blot was reprobed for GAPDH as a loading control, (b) A Western blot evaluating the expression of psoriasin protein in the HCC-EV1 cell line (lanes 1 and 3) and the HCC-BR116 cell line (lanes 2 and 4). Cells were either untreated (lanes 1 and 2) or treated with 1 μM etoposide for 24 hours. The blot was reprobed for GAPDH as a loading control, (c) A 72 hour dose inhibition study investigating the effect of psoriasin expression on the response to etoposide in the HP1 and MDA-MB-231-zeo cell lines. The IC50 values were calculated from the sigmoidal dose response curves. […] (Symbols □=HP1 cell line (psoriasin expression) ▴=MDA-MB-231-zeo (empty vector control), (d) A 72 hour dose inhibition study investigating the effect of loss of psoriasin expression on the response to etoposide in the HCCEV1 cell line. The IC50 values were calculated from the sigmoidal dose response curves. The results represent three independent experiments. (Symbols ▴=siRNA to psoriasin □=scrambled sequence). […]\nThe HCC-EV1 cell line was treated with scrambled or psoriasin specific siRNA and after 24 hours seeded at 100,000 cells per well on 24 well tissue culture plates. […] After 72 h of continuous drug exposure, cells were detached with trypsin, and counted using a Z2 particle and size analyzer (Coulter, Miami, Fla.). […]"}, "[2]": {"system": "psoriasin (S100A7) mRNA and protein in HCC-EV1 and HCC-BR116 cells", "test": "Northern and Western blot of psoriasin expression after etoposide treatment", "settings": "BRCA1 deficient cells (HCC-EV1), 1 μM etoposide for 24 hours", "description": "Cells were either untreated (lanes 1 and 2) or treated with 1 μM etoposide for 24 hours. The blot was reprobed for GAPDH as a loading control, (b) A Western blot evaluating the expression of psoriasin protein in the HCC-EV1 cell line (lanes 1 and 3) and the HCC-BR116 cell line (lanes 2 and 4). Cells were either untreated (lanes 1 and 2) or treated with 1 μM etoposide for 24 hours. The blot was reprobed for GAPDH as a loading control, (c) A 72 hour dose inhibition study investigating the effect of psoriasin expression on the response to etoposide in the HP1 and MDA-MB-231-zeo cell lines. The IC50 values were calculated from the sigmoidal dose response curves. The results represent three independent experiments. (Symbols □=HP1 cell line (psoriasin expression) ▴=MDA-MB-231-zeo (empty vector control), (d) A 72 hour dose inhibition study investigating the effect of loss of psoriasin expression on the response to etoposide in the HCCEV1 cell line. The IC50 values were calculated from the sigmoidal dose response curves. The results represent three independent experiments. (Symbols ▴=siRNA to psoriasin □=scrambled sequence). […]"}, "[3]": {"system": "HCC-EV1 cell line", "test": "72 hour dose inhibition study of etoposide in HCC-EV1 cells, psoriasin siRNA vs scrambled sequence", "settings": "BRCA1 deficient HCC-EV cells, 72 h exposure, from IC50 values, three independent experiments", "description": "as §1\nFor drug sensitivity assays HCC-EV and HCCBR cells were seeded onto 24-well tissue culture plates at a density of 100,000 cells per well. […] After 72 hours of continuous drug exposure, cells were detached with trypsin and counted using a Z2 particle and size analyser (Coulter, Miami, Fla.). […]"}}}
{"smiles": "COc1cc([C@@H]2c3cc4c(cc3[C@@H](O[C@@H]3O[C@@H]5CO[C@@H](C)O[C@H]5[C@H](O)[C@H]3O)[C@H]3COC(=O)[C@H]23)OCO4)cc(OC)c1O", "note": "[etoposide]", "values": [{"measurement": "increase in sensitivity to etoposide induced by expression of psoriasin", "setting": "[1]", "value": 4000, "unit": "fold"}, {"measurement": "expression of psoriasin mRNA and protein following etoposide treatment", "setting": "[2]", "value": "enhanced expression"}, {"measurement": "increase in resistance to etoposide induced by inhibition of endogenous psoriasin", "setting": "[3]", "value": "greater than 20 fold"}]}
